Data as given in ChEMBL document CHEMBL1201862, “PubChem BioAssay data set” (2004).
Active and inactive are the calls of the source.

Tests used:
[1] = A Cell-Based Confirmatory Screen for Compounds that Inhibit VEEV TC-83 (4).; format: functional
[2] = A Cell-Based Confirmatory Screen for Compounds that Inhibit VEEV, TC-83 (5).; format: functional
[3] = growth inhibition of replicating M. tuberculosis, dose response, counter-screen, dry powder, IC90 (AID 651617); format: functional; conditions: Mycobacterium tuberculosis
[4] = inhibitors of non-replicating M. tuberculosis, dose response, luciferase, dry powder (AID 651620); format: functional; conditions: Mycobacterium tuberculosis
[5] = inhibitors of non-replicating M. tuberculosis, dose response, luciferase, dry powder (AID 651619); format: functional; conditions: Mycobacterium tuberculosis
[6] = molecular target: T1, Sentrin-specific protease 8 (Homo sapiens, UniProt Q96LD8); assay: SENP8 protease inhibitors, SAR follow-up, biochemical, luminescence (AID 504501); format: functional
T1 sequence (Q96LD8 whole entry): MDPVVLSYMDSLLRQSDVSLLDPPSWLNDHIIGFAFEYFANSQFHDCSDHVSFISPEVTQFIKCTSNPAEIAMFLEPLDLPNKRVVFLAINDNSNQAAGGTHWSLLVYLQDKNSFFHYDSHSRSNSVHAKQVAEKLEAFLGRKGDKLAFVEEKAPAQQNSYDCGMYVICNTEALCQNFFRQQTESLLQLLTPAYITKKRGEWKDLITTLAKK

Nonstructural protein 1 = Nonstructural protein 1 (Influenza A virus, UniProt Q194T2); format: functional, Influenza A virus (A/California/07/2009(H1N1))
Caspase-3 [7] = molecular target: T2, Caspase-3 (Homo sapiens, UniProt P42574); assay: SAR Analysis of small molecule inhibitors of Sentrin-specific proteases (SENPs) using a Caspase-3 Selectivity assay. [Related pubchem assays (depositor defined):AID2540, AID2599, AID434973, AID489001]; format: functional
T2 sequence (P42574 whole entry): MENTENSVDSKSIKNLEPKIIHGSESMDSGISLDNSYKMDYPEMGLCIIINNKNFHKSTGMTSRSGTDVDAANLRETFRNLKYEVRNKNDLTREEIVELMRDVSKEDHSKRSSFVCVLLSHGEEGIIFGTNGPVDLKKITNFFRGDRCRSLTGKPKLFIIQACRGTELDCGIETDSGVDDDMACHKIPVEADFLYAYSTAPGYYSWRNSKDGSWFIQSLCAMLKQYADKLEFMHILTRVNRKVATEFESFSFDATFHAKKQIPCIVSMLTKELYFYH

[8] = molecular target: T3, Sentrin-specific protease 7 (Homo sapiens, UniProt Q9BQF6); assay: SENP7 protease inhibitors, SAR follow-up, biochemical, luminescence (AID 504497); format: functional
T3 sequence (Q9BQF6 whole entry): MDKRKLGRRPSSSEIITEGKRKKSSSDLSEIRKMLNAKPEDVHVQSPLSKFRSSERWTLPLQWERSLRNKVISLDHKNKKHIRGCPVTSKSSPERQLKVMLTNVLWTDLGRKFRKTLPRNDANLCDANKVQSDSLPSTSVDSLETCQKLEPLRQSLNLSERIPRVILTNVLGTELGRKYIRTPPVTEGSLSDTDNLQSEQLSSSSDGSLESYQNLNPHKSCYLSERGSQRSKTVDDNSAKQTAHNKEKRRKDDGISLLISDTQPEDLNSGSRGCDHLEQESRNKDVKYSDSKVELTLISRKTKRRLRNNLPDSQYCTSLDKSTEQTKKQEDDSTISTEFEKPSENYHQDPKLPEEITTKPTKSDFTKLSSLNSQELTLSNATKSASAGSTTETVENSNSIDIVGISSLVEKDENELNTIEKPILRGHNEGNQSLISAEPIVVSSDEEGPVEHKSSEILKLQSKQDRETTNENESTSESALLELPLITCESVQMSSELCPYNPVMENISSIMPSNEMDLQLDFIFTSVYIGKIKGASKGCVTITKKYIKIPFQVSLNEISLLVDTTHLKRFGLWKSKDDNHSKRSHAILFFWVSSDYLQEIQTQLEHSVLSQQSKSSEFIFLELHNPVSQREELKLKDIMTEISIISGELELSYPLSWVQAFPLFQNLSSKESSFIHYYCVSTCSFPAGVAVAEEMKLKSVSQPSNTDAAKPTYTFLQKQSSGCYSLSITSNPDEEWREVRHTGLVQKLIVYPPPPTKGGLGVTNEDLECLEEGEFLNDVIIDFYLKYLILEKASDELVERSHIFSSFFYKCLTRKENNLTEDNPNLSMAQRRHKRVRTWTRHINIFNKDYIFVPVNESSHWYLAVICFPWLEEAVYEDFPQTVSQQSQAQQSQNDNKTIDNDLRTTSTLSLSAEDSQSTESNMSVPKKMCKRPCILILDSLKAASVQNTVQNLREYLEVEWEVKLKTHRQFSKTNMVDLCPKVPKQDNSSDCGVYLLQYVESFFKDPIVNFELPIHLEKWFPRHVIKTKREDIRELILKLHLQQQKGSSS

[9] = molecular target: T4, Sentrin-specific protease 6 (Homo sapiens, UniProt Q9GZR1); assay: SAR Analysis of small molecule inhibitors of Sentrin-specific protease 6 (SENP6) using a Luminescent assay. [Related pubchem assays (depositor defined):AID2582, AID2599]; format: functional
T4 sequence (Q9GZR1 whole entry): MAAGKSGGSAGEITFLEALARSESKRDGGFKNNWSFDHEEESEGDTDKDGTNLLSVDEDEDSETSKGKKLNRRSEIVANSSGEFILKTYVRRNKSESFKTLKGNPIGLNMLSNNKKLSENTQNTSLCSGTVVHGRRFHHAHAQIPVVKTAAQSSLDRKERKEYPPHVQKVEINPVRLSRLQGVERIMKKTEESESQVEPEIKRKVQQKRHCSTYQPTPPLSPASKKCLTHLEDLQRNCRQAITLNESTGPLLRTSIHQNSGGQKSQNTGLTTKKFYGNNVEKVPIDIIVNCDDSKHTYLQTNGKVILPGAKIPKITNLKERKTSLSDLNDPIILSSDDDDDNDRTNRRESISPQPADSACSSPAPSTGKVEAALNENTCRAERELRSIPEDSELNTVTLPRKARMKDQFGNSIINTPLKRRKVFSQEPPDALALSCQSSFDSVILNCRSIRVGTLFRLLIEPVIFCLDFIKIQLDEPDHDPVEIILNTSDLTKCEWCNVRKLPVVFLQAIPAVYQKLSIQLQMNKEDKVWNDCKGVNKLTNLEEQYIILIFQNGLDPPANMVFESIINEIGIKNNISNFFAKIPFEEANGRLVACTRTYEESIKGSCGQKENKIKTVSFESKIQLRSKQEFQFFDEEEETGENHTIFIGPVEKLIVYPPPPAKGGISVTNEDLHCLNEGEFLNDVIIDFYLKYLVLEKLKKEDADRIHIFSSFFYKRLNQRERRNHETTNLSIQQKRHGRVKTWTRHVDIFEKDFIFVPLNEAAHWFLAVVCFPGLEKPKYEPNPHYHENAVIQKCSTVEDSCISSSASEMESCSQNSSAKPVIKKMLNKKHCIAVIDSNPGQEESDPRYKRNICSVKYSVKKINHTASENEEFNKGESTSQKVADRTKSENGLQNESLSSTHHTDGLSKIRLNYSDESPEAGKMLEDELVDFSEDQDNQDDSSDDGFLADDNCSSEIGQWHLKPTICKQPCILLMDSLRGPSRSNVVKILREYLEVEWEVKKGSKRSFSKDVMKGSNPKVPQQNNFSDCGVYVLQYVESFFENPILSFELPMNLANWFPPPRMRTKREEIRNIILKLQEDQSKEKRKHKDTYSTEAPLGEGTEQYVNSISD

[10] = molecular target: T3, Sentrin-specific protease 7; format: functional
[11] = molecular target: T4, Sentrin-specific protease 6; format: functional
Cytochrome P450 2D6 = Cytochrome P450 2D6 (Homo sapiens, UniProt P10635);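 note: CYP2D6 member of a cytochrome P450 panel assay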
[12] = molecular target: Oxysterols receptor LXR-beta (Homo sapiens, UniProt P55055); format: functional, cell-based;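 note: Cell-based luminescence dose-response assay of agonist activity at LXR, run as a confirmatory counterscreen to a daf-12 agonist screen; HEK293 cells with Gal4-LXR fusion and GAL4-driven luciferase reporter; agonist potency from rising luciferase signal of a Gal4-LXR reporter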
Caspase-3 [13] = molecular target: T2, Caspase-3; format: functional
[14] = molecular target: T1, Sentrin-specific protease 8; format: functional
Protein RecA = molecular target: T5, Protein RecA (Mycobacterium tuberculosis, UniProt P9WHJ3); assay: Fluorescence Cell-Free Homogeneous Dose Retest to Identify Inhibitors of RecA-Intein Splicing Activity. [Related pubchem assays (depositor defined):AID2097, AID2223, AID489010, AID492950]; format: functional
T5 sequence (P9WHJ3 whole entry): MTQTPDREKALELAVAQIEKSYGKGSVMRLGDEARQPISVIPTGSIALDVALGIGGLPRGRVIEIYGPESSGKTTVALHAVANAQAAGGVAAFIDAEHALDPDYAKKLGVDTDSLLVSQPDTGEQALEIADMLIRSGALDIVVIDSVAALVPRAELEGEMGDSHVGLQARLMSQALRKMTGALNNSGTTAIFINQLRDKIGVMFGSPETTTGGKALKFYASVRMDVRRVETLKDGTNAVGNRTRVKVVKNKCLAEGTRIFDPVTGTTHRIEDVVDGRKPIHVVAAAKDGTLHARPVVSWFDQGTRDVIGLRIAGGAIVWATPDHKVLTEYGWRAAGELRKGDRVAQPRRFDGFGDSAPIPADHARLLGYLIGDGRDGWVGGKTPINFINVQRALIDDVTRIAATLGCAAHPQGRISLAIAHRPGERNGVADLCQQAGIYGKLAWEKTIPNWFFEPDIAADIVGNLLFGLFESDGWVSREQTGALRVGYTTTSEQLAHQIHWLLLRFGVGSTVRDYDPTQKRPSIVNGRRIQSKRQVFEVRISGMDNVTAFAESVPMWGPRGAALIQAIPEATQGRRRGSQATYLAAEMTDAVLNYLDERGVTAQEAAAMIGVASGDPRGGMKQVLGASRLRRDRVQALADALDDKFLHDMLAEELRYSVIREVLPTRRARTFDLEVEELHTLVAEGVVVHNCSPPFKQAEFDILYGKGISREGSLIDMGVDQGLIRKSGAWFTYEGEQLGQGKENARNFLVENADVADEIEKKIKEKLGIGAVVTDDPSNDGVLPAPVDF

[15] = molecular target: T6, Replicative DNA helicase DnaB (Mycobacterium tuberculosis, UniProt P9WMR3); assay: DnaB intein splicing inhibitors, dose response, biochemical, cell-free fluorescence (AID 449749); format: functional
T6 sequence (P9WMR3 whole entry): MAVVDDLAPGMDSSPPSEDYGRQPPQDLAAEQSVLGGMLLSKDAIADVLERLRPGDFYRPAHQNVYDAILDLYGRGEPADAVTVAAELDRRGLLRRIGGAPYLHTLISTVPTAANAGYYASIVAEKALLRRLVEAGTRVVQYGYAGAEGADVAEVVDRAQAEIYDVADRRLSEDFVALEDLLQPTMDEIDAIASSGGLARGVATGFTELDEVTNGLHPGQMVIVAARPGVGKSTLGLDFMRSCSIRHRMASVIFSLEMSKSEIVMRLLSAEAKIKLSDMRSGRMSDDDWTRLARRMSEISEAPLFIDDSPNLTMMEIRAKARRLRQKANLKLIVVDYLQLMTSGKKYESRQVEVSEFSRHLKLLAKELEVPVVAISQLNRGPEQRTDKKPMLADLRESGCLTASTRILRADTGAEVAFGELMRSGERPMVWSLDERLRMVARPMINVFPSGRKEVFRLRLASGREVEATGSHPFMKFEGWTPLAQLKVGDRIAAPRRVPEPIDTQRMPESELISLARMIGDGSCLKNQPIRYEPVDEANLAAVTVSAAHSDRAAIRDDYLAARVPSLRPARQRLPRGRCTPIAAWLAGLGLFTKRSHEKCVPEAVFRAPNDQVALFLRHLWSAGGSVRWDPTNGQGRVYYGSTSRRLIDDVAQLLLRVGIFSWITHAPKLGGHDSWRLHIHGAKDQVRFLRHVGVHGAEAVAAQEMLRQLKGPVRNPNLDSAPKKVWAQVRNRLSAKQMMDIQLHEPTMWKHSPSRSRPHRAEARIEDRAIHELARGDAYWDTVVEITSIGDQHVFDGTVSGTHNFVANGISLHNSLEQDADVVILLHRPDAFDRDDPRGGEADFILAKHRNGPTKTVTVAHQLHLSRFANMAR

[16] = A Cell-Based Counter Screen testing Compounds that Inhibit VEEV TC-83, in strain KU V3526.; format: functional
Vero [17] = assay: cells; format: functional, cell-based; conditions: Chlorocebus sabaeus
Vero [18] = assay: cells; format: functional; conditions: Chlorocebus sabaeus
H4 = assay: Luminescence Cell-Based Dose Response HTS to Identify Activators of 5'UTR Stem-Loop Driven Prion Protein mRNA Translation in H4 Neuroglioblastoma Cells. [Related pubchem assays: 1829 (Project Summary), 1814 (Primary HTS)]; format: functional; conditions: Homo sapiens
[19] = Luminescence Cell-Based Dose Response HTS to Identify Activators of Luciferase Translation or Activity in H4 […] Cells. [Related pubchem assays: 1829 (Project Summary), 1814 (Primary HTS)]; format: functional
[20] = Luminescence Cell-Based Dose Retest to Confirm Inhibitors of Cancer Stem Cells. [Related pubchem assays (depositor defined):AID2717, AID2721]; format: functional; conditions: Homo sapiens
Vero [21] = assay: host cell cytotoxicity of antiviral hits, dose response, cytotoxicity control for West Nile virus antiviral project, secondary assay (AID 1650); format: functional; conditions: Chlorocebus sabaeus
[22] = A Cell-Based Confirmatory Screen for Compounds that Inhibit VEEV, TC-83 (2).; format: functional
INS1 = assay: beta cell apoptosis inhibitors, cytokine rescue, dose response, luminescence, retest (AID 449756); format: functional, cell-based; conditions: Rattus norvegicus;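 note: cell death triggered by IL-1 beta plus TNF-alpha plus IFN-gamma mixture; protective hits raise ATP signal compared with cytokine alone wells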

Nonstructural protein 1, sequence (Q194T2 whole entry): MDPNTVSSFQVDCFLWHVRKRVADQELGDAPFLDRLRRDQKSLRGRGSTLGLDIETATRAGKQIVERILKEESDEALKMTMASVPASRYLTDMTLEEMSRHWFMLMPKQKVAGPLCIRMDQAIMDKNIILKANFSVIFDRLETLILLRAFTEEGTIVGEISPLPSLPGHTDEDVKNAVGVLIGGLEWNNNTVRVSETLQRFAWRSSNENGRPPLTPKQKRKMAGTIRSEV
Oxysterols receptor LXR-beta, sequence (P55055 whole entry, the tested form may be a part): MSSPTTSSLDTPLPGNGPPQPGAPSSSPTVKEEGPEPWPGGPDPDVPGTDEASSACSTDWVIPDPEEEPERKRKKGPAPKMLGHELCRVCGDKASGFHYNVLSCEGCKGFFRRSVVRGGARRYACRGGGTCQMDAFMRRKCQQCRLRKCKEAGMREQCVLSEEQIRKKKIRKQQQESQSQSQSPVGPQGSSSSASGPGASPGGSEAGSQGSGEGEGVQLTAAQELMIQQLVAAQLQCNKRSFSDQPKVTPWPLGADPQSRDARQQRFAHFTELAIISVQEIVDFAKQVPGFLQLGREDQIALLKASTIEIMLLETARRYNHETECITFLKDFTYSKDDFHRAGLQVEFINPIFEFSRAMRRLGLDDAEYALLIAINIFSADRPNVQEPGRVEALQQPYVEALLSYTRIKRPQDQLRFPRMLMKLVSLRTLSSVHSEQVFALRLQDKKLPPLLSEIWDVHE
Cytochrome P450 2D6, sequence (P10635 whole entry, the tested form may be a part): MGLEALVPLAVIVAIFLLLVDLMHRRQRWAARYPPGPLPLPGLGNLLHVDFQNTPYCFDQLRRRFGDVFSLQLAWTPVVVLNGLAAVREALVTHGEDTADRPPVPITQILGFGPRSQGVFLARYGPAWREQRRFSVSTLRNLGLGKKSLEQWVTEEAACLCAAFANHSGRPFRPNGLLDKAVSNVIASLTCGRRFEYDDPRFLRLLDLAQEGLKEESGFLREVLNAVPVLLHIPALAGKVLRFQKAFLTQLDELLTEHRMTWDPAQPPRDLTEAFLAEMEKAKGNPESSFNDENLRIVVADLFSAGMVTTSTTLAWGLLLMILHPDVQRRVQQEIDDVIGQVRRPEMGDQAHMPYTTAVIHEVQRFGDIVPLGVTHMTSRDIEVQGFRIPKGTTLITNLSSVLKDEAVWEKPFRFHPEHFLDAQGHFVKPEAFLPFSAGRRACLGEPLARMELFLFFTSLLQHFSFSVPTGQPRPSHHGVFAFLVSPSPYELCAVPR

CCN1CCN(Cc2nc3ccc([N+](=O)[O-])cc3c(=O)n2-c2ccc(F)cc2)CC1
active: IC50 [1] 0.6 µM | IC50 [2] 0.99 µM

COc1ccc(-c2nnc(SCc3ccccn3)o2)cc1
active: IC90 [3] 62 µM | IC90 [4] 4 µM | IC90 [5] 4 µM

O=[N+]([O-])c1ccccc1N/N=C/c1c[nH]c2ccccc12
active: IC50 [6] 6.32 µM | IC50 (Nonstructural protein 1) 19 µM | IC50 (Caspase-3 [7]) 17.4 µM | IC50 [8] 2.26 µM | IC50 [9] 5.73 µM | IC50 [10] 3.36 µM | IC50 (Caspase-3 [13]) 32.8 µM
inactive: EC50 (cells) > 67.5 µM | IC50 [11] > 100 µM | EC50 [12] > 67.5 µM | IC50 [14] > 100 µM
inconclusive: AC50 (Cytochrome P450 2D6) 20 µM

Clc1ccc2nnnc(-c3ccccc3)c2c1
> 120 µM (not active): EC50 (H4)
active: EC50 (Protein RecA) 3.78 µM | AC50 [15] 24.8 µM | IC50 [16] 3.45 µM | IC50 (Vero [17]) 9.71 µM | CC50 (Vero [18]) > 25 µM | EC50 [19] 2.12 µM | AC50 [20] 3.08 µM | CC50 (Vero [21]) 12.3 µM | IC50 [22] 6.12 µM | AC50 (INS1) 7.81 µM
